US20080131511A1, “Pharmaceutical Composition for Treatment of Tear and Salivary Fluid Drying” (Astellas Pharma, Inc., priority 2004, published 2008)

What was measured:
Assay type in all cases: in vivo, mouse (male Balb/c)
salivary gland [1] = test: Salivary fluid secretion after subcutaneous bolus administration; settings: mice; for dose at which statistically significant acceleration of salivary fluid secretion was attained / time after administration at which secretion amount of salivary and tear fluid reached maximum: s.c. bolus; for time after administration at which secretion amount of salivary and tear fluid reached maximum: every dose
Method: (§1) Male Balb/c mice were used in the test.
(§2) The compound A was dissolved in physiological saline to a concentration of 1, 3, 10, 30 or 100 mg/5 ml, and 5 ml/kg of the drug solution was administered under the dorsal skin. Secreted amounts of salivary and tear fluid were measured just before the administration of compound A and 10, 20, 30, 40 and 50 minutes after the administration. The sweating action was measured 10 minutes after the administration. Also, the growth acceleration action was measured 6 hours after the administration.
as §2, with “Pilocarpine was dissolved” for “The compound A was dissolved”, “concentration of 0.03, 0.1, 0.3, 1, 3 or 10 mg/5 ml, or cevimeline to a concentration of 0.3, 1, 3,” for “concentration of 1, 3,”, “administration of pilocarpine or cevimeline and 10,” for “administration of compound A and 10,”
(§3) The mouth of a mouse was wiped with a cotton ball whose weight had been measured in advance, and the incremental weight was used as the amount of salivary fluid. Also at the same time, a thread for tear fluid measurement (Zone Quick; Menicon) used on the Schirmer test was inserted into the lower eyelid conjunctival sac, and the length of colored part was measured and used as the amount of tear fluid. From the measurement results, area under the secreted amount-versus-time curve (AUC) was calculated.
(§4) All of the test results were expressed as fold increases of the reactions of the drug-administered group versus those of the vehicle-administered group, and comparison between the drug-administered groups and the vehicle-administered group was carried out using Dunnett's t-test. P<0.05 was considered significant. Results

salivary gland [2] = test: Salivary fluid secretion during subcutaneous continuous administration (osmotic pump); settings: mice; for Salivary fluid: AUC of secreted amount
Method: as §1
(§5) The compound A was dissolved in physiological saline to a concentration of 0.625, 1.25, 2.5, 5.0, 10 or 20 mg/200 μl, and filled each pump (Alzet mini-osmotic pump 2001D, 8 μl/h, 1 day; DURECT Corporation) with about 200 μl portions It means, that is, each pump releases at a rate of 0.025, 0.05, 0.1, 0.2, 0.4 or 0.8 mg compound A/h, respectively. About 5 mm of dorsal epidermis of a mouse anesthetized with diethyl ether was incised, the osmotic pump already filled with the compound A was subcutaneously implanted, and then the skin was stitched. Secreted amounts of salivary and tear fluid and sweating were periodically measured from just before the implantation of pump until 32 hours after the administration. The ornithine decarboxylase activity was measured 10 hours after the implantation.
(§6) Pilocarpine was dissolved in physiological saline to a concentration of 0.039, 0.078, 0.16 or 0.31 mg/200 μl, or cevimeline to a concentration of 0.16, 0.31, 0.63 or 1.3 mg/200 μl, and filled the osmotic pump (Alzet mini-osmotic pump 2001 D, 8 μl/h, 1 day; DURECT Corporation) with about 200 μl portions. It means, that is, each pump releases at a rate of 0.00156, 0.00312, 0.0064 or 0.0124 mg/h (pilocarpine) or 0.0064, 0.0124, 0.0252 or 0.05 mg/h (cevimeline). About 5 mm of dorsal epidermis of a mouse anesthetized with diethyl ether was incised, the osmotic pump already filled with pilocarpine or cevimeline was subcutaneously implanted, and then the skin was stitched. Secreted amounts of salivary and tear fluid and sweating were periodically measured from just before the implantation of pump until 32 hours after the administration. The ornithine decarboxylase activity was measured 10 hours after the implantation.
as §3, §4

[3] = tested on: ornithine decarboxylase (ODC) activity of extra-orbital lacrimal gland; test: Ornithine decarboxylase activity of extra-orbital lacrimal gland, subcutaneous continuous administration; settings: mice; for Glandular cell growth Lacrimal gland: ODC activity 10 hours after implantation
Method: as §1, §5, §6
Thus, it can be easily analogized that the ODC activity becomes a useful index of cell growth and function of the exocrine gland. Accordingly, the ability of each drug to activate glandular tissue was evaluated by measuring ODC activity of parotid salivary gland and extra-orbital lacrimal gland.
The amount of ^14CO2 formed from L-^14C-ornithine was used as the index of ODC activity.
A mouse anesthetized with diethyl ether was sacrificed by bleeding, and left and right parotid salivary glands and extra-orbital lacrimal glands were isolated. After removing the attached connective tissue and fat, the isolated glandular tissues homogenized in 1.5 ml of a homogenate buffer (25 mM Tris-HCl buffer (pH 7.4) containing 0.1 mM ethylenediaminetetraacetic acid, 0.4 mM pyridoxal phosphate, 5 mM dithiothreitol and 0.1% Brij 35®) using a Potter type homogenizer and then centrifuged at 4° C., 15,000 g for 30 minutes, and the supernatant was used as the enzyme fraction. Reaction of the enzyme and substrate was carried out by adding 100 μl of a substrate solution (the homogenate buffer containing 300 μM DL-ornithine and 5 μCi L-^14C-ornithine) to 900 μl of the enzyme liquid whose protein concentration had been adjusted to 2.5 mg/ml and incubating at 37° C. for 1 hour in a sealed tube, and the reaction was terminated by the addition of 100 μl of 2 M H2SO4. The ^14CO2 generated by the reaction was captured by 150 μl of 1 N NaOH soaked in a glass filter. Radioactivity of the ^14CO2 captured on the glass filter was detected using a liquid scintillation counter. The enzyme activity (pmol ^14CO2/mg protein/hour) was calculated from the measured results.
as §4

[4] = 10 minutes after administration
[5] = s.c. osmotic pump 0.16 mg (0.0064 mg/h)
[6] = s.c. osmotic pump 0.31 mg (0.0124 mg/h)
[7] = s.c. osmotic pump 0.63 mg (0.0252 mg/h)
[8] = s.c. osmotic pump 1.25 (0.05 mg/h)

CC[C@@H]1C(=O)OC[C@@H]1Cc1cncn1C [pilocarpine]
Salivary fluid (salivary gland [1]; s.c. bolus 0.03 mg/kg, 10 minutes after administration): 1.2 ± 0.15 fold increase vs. the vehicle group
Salivary fluid (salivary gland [1]; s.c. bolus 0.1 mg/kg, 10 minutes after administration): 1.8 ± 0.23 fold increase vs. the vehicle group
Salivary fluid (salivary gland [1]; s.c. bolus 0.3 mg/kg, 10 minutes after administration): 1.7 ± 0.15 fold increase vs. the vehicle group
Salivary fluid (salivary gland [1]; s.c. bolus 1 mg/kg, 10 minutes after administration (Table 3)): 2.0 ± 0.18 fold increase vs. the vehicle group
dose at which statistically significant acceleration of salivary fluid secretion was attained (salivary gland [1]; [4]): 0.1 mg/kg
time after administration at which secretion amount of salivary and tear fluid reached maximum (salivary gland [1]): 10 min
dose at which salivary fluid secretion acceleration action reached maximum (salivary gland [2]; s.c. continuous administration): 0.16 mg
Salivary fluid (salivary gland [2]; s.c. osmotic pump 0.039 mg (0.00156 mg/h)): 1.1 ± 0.04 fold increase vs. vehicle group
Salivary fluid (salivary gland [2]; s.c. osmotic pump 0.078 mg (0.00312 mg/h)): 1.5 ± 0.08 fold increase vs. vehicle group
Salivary fluid (salivary gland [2]; [5]): 2.9 ± 0.14 fold increase vs. vehicle group
Salivary fluid (salivary gland [2]; [6]): 2.8 ± 0.24 fold increase vs. vehicle group
dose at which ODC activity increasing action of lacrimal gland cell was observed ([3]; s.c. continuous administration): 0.31 mg
Glandular cell growth Lacrimal gland [3, 5]: 1.4 ± 0.33 fold increase vs. vehicle group
Glandular cell growth Lacrimal gland [3, 6]: 2.0 ± 0.28 fold increase vs. vehicle group

CC1OC2(CS1)CN1CCC2CC1 (stereo not drawn) [cevimeline]
Salivary fluid (salivary gland [1]; s.c. bolus 0.3 mg/kg, 10 minutes after administration (Table 4)): 1.2 ± 0.13 fold increase vs. the vehicle group
Salivary fluid (salivary gland [1]; s.c. bolus 1 mg/kg, 10 minutes after administration (Table 4)): 2.0 ± 0.22 fold increase vs. the vehicle group
Salivary fluid (salivary gland [1]; s.c. bolus 3 mg/kg, 10 minutes after administration (Table 4)): 2.1 ± 0.42 fold increase vs. the vehicle group
Salivary fluid (salivary gland [1]; s.c. bolus 10 mg/kg, 10 minutes after administration (Table 4)): 3.1 ± 0.50 fold increase vs. the vehicle group
dose at which statistically significant acceleration of salivary fluid secretion was attained (salivary gland [1]; [4]): 3 mg/kg
time after administration at which secretion amount of salivary and tear fluid reached maximum (salivary gland [1]): 10 min
dose showing statistically significant salivary fluid secretion acceleration (salivary gland [2]; s.c. continuous administration, cumulative quantity vs vehicle group): 0.63 mg
Salivary fluid (salivary gland [2]; [5]): 0.98 ± 0.10 fold increase vs. the solvent group
Salivary fluid (salivary gland [2]; [6]): 1.0 ± 0.12 fold increase vs. the solvent group
Salivary fluid (salivary gland [2]; [7]): 1.5 ± 0.11 fold increase vs. the solvent group
Salivary fluid (salivary gland [2]; [8]): 1.7 ± 0.17 fold increase vs. the solvent group
Glandular cell growth Lacrimal gland [3, 7]: 1.4 ± 0.28 fold increase vs. the solvent group
Glandular cell growth Lacrimal gland [3, 8]: 1.3 ± 0.70 fold increase vs. the solvent group
